Holding throughout (assay): relative viability (nuclei count vs DMSO), 5 days (fraction); higher = more cells survive
Compound in the experiment “Bemcentinib + Tozasertib”: Nc1nc(Nc2ccc3c(c2)CC[C@@H](N2CCCC2)CC3)nn1-c1cc2c(nn1)-c1ccccc1CCC2 [Bemcentinib] + Cc1cc(Nc2cc(N3CCN(C)CC3)nc(Sc3ccc(NC(=O)C4CC4)cc3)n2)n[nH]1 [Tozasertib] (partner 0.1 µM)
The gist of the method: (§1)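 Lung cancer cell lines, seeded in 1536-well plates, were treated the following day by pin tool with a single drug or with five library-drug doses (not always all listed) in √10 steps on top of a fixed anchor-drug dose. Cells were fixed and nuclei stained in one step after 5 days, and nuclei were counted. Relative viability is the nuclei count for treated wells divided by that for vehicle wells, reported as medians of duplicate plates.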

Compound in experiment [1]: CC1=CC=C(C=C1)C(=O)CN2C3=C(CCCC3)SC2=N [Pifithrin_alpha] + C[C@]1(O)C[C@@H](c2nc(-c3ccc4ccc(-c5ccccc5)nc4c3)c3c(N)nccn32)C1 [Linsitinib] (partner 1 µM)
Put shortly:
as §1

Compound in the experiment “Bemcentinib + Linsitinib”: Nc1nc(Nc2ccc3c(c2)CC[C@@H](N2CCCC2)CC3)nn1-c1cc2c(nn1)-c1ccccc1CCC2 [Bemcentinib] + C[C@]1(O)C[C@@H](c2nc(-c3ccc4ccc(-c5ccccc5)nc4c3)c3c(N)nccn32)C1 [Linsitinib] (partner 1 µM)
The gist of the method:
as §1

Compound in experiment [2]: CC1=CC=C(C=C1)C(=O)CN2C3=C(CCCC3)SC2=N [Pifithrin_alpha] + COc1cc2c(Oc3ccc(NC(=O)C4(C(=O)Nc5ccc(F)cc5)CC4)cc3F)ccnc2cc1OCCCN1CCOCC1 [Foretinib] (partner 0.25 µM)
The gist of the method:
as §1

Consider HCC-44, for which the relative viability with Bemcentinib + Tozasertib (first compound 0.04 µM) was 0.913; with Bemcentinib + Tozasertib (first compound 0.1265 µM) it was 1.46; in the experiment with Bemcentinib + Tozasertib (first compound 0.4 µM), 0.872; with Bemcentinib + Tozasertib (first compound 1.265 µM), 0.956; with Bemcentinib + Tozasertib (first compound 4 µM), 0.888; in experiment [1] (first compound 1 µM), 0.571. The relative viability is 0.607 in experiment [1] (first compound 3.162 µM); 0.64 in experiment [1] (first compound 10 µM); 0.441 in experiment [1] (first compound 31.62 µM); 0.578 in experiment [1] (first compound 100 µM); 0.702 with Bemcentinib + Linsitinib (first compound 0.04 µM); 0.74 in the experiment with Bemcentinib + Linsitinib (first compound 0.1265 µM). Besides, the values for the relative viability with Bemcentinib + Linsitinib (first compound 0.4 µM), in the experiment with Bemcentinib + Linsitinib (first compound 1.265 µM) and with Bemcentinib + Linsitinib (first compound 4 µM) were 0.736, 0.714 and 0.771, respectively.

Take IA-LM: the relative viability was 0.784 in experiment [1] (first compound 1 µM); 0.554 in experiment [1] (first compound 3.162 µM); 0.272 in experiment [1] (first compound 10 µM); 0.501 in experiment [1] (first compound 31.62 µM); 0.267 in experiment [1] (first compound 100 µM); 0.661 with Bemcentinib + Linsitinib (first compound 0.04 µM). The relative viability with Bemcentinib + Linsitinib (first compound 0.1265 µM) stood at 0.962; with Bemcentinib + Linsitinib (first compound 0.4 µM), 0.654; with Bemcentinib + Linsitinib (first compound 1.265 µM) it was 0.697; with Bemcentinib + Linsitinib (first compound 4 µM) it was 0.713; in experiment [2] (first compound 1 µM), 1.07; in experiment [2] (first compound 3.162 µM), 0.975. The figures for the relative viability in experiment [2] (first compound 10 µM), in experiment [2] (first compound 31.62 µM) and in experiment [2] (first compound 100 µM) were 0.469, 0.445 and 0.604, respectively.

Consider NCI-H522, for which the relative viability in the experiment with Bemcentinib + Tozasertib (first compound 0.04 µM) turned out to be 0.561; with Bemcentinib + Tozasertib (first compound 0.1265 µM), 0.598; with Bemcentinib + Tozasertib (first compound 0.4 µM) it was 0.638; in the experiment with Bemcentinib + Tozasertib (first compound 1.265 µM) it was 0.62; in the experiment with Bemcentinib + Tozasertib (first compound 4 µM), 0.538.

As to NCI-H1299, the relative viability was 1.04 in experiment [1] (first compound 1 µM); 1.09 in experiment [1] (first compound 3.162 µM); 1.01 in experiment [1] (first compound 10 µM); 0.813 in experiment [1] (first compound 31.62 µM); 0.998 in experiment [1] (first compound 100 µM); 1.01 with Bemcentinib + Linsitinib (first compound 0.04 µM). The relative viability came to 1.04 in the experiment with Bemcentinib + Linsitinib (first compound 0.1265 µM); 0.985 in the experiment with Bemcentinib + Linsitinib (first compound 0.4 µM); 1.07 in the experiment with Bemcentinib + Linsitinib (first compound 1.265 µM); 1.09 with Bemcentinib + Linsitinib (first compound 4 µM); 1.04 in experiment [2] (first compound 1 µM); 1.14 in experiment [2] (first compound 3.162 µM). The relative viability in experiment [2] (first compound 10 µM) was determined as 1.07; in experiment [2] (first compound 31.62 µM), 0.889; in experiment [2] (first compound 100 µM), 1.07.

With NCI-H1563, the relative viability in experiment [1] (first compound 1 µM) stood at 1.17; in experiment [1] (first compound 3.162 µM), 1.29; in experiment [1] (first compound 10 µM), 1.04; in experiment [1] (first compound 31.62 µM), 1.06; in experiment [1] (first compound 100 µM), 1; with Bemcentinib + Linsitinib (first compound 0.04 µM), 1.24. In addition, the relative viability with Bemcentinib + Linsitinib (first compound 0.1265 µM) amounted to 1.15; with Bemcentinib + Linsitinib (first compound 0.4 µM), 1.21; with Bemcentinib + Linsitinib (first compound 1.265 µM), 1.15; in the experiment with Bemcentinib + Linsitinib (first compound 4 µM) it was 1.19; in experiment [2] (first compound 1 µM) it was 0.879; in experiment [2] (first compound 3.162 µM), 0.912. In addition, the relative viability amounted to 0.875 in experiment [2] (first compound 10 µM), 0.881 in experiment [2] (first compound 31.62 µM) and 0.81 in experiment [2] (first compound 100 µM).

For NCI-H1623, the relative viability in the experiment with Bemcentinib + Tozasertib (first compound 0.04 µM) came to 0.427; in the experiment with Bemcentinib + Tozasertib (first compound 0.1265 µM), 0.438; in the experiment with Bemcentinib + Tozasertib (first compound 0.4 µM), 0.455; with Bemcentinib + Tozasertib (first compound 1.265 µM) it was 0.461; with Bemcentinib + Tozasertib (first compound 4 µM), 0.442; in experiment [2] (first compound 1 µM), 0.825. Further, the relative viability in experiment [2] (first compound 3.162 µM) came to 0.811; in experiment [2] (first compound 10 µM), 0.759; in experiment [2] (first compound 31.62 µM) it was 0.628; in experiment [2] (first compound 100 µM) it was 0.669.

Turning to NCI-H1648, the relative viability in the experiment with Bemcentinib + Tozasertib (first compound 0.04 µM) came out at 0.571; with Bemcentinib + Tozasertib (first compound 0.1265 µM) it was 0.424; with Bemcentinib + Tozasertib (first compound 0.4 µM) it was 0.584; in the experiment with Bemcentinib + Tozasertib (first compound 1.265 µM), 0.391; with Bemcentinib + Tozasertib (first compound 4 µM), 0.49.

Consider NCI-H1650, for which the relative viability was found to be 0.386 with Bemcentinib + Tozasertib (first compound 0.04 µM); 0.382 with Bemcentinib + Tozasertib (first compound 0.1265 µM); 0.44 with Bemcentinib + Tozasertib (first compound 0.4 µM); 0.288 in the experiment with Bemcentinib + Tozasertib (first compound 1.265 µM); 0.373 with Bemcentinib + Tozasertib (first compound 4 µM); 1.2 in experiment [2] (first compound 3.162 µM). For the same cell line, the relative viability in experiment [2] (first compound 10 µM) stood at 1.04; in experiment [2] (first compound 31.62 µM) it was 0.837; in experiment [2] (first compound 100 µM), 0.853.

Regarding NCI-H1703, the relative viability turned out to be 0.596 in experiment [1] (first compound 1 µM); 0.6 in experiment [1] (first compound 3.162 µM); 0.786 in experiment [1] (first compound 10 µM); 0.733 in experiment [1] (first compound 31.62 µM); 0.635 in experiment [1] (first compound 100 µM); 0.675 with Bemcentinib + Linsitinib (first compound 0.04 µM). Further, the relative viability with Bemcentinib + Linsitinib (first compound 0.1265 µM) is 0.776; with Bemcentinib + Linsitinib (first compound 0.4 µM), 0.798; with Bemcentinib + Linsitinib (first compound 1.265 µM), 0.638; in the experiment with Bemcentinib + Linsitinib (first compound 4 µM) it was 0.746; in experiment [2] (first compound 1 µM) it was 0.285; in experiment [2] (first compound 3.162 µM) it was 0.336. Also, the values for the relative viability in experiment [2] (first compound 10 µM), in experiment [2] (first compound 31.62 µM) and in experiment [2] (first compound 100 µM) were 0.374, 0.34 and 0.266, respectively.

Turning to NCI-H1792, the relative viability in experiment [1] (first compound 1 µM) was 0.563; in experiment [1] (first compound 3.162 µM), 0.498; in experiment [1] (first compound 10 µM), 0.378; in experiment [1] (first compound 31.62 µM), 0.422; in experiment [1] (first compound 100 µM) it was 0.486; in the experiment with Bemcentinib + Linsitinib (first compound 0.04 µM), 0.539. The relative viability in the experiment with Bemcentinib + Linsitinib (first compound 0.1265 µM) came out at 0.441; in the experiment with Bemcentinib + Linsitinib (first compound 0.4 µM), 0.676; in the experiment with Bemcentinib + Linsitinib (first compound 1.265 µM), 0.645; with Bemcentinib + Linsitinib (first compound 4 µM) it was 0.556.

On to NCI-H2170, for which the relative viability with Bemcentinib + Tozasertib (first compound 0.04 µM) was found to be 0.73; with Bemcentinib + Tozasertib (first compound 0.1265 µM), 0.764; with Bemcentinib + Tozasertib (first compound 0.4 µM), 0.763; in the experiment with Bemcentinib + Tozasertib (first compound 1.265 µM), 0.658; in the experiment with Bemcentinib + Tozasertib (first compound 4 µM), 0.644; in experiment [2] (first compound 1 µM), 0.985. Moreover, the relative viability in experiment [2] (first compound 3.162 µM) is 1.02; in experiment [2] (first compound 10 µM), 0.988; in experiment [2] (first compound 31.62 µM), 0.931; in experiment [2] (first compound 100 µM), 0.952.

Turning to NCI-H2342, the relative viability with Bemcentinib + Tozasertib (first compound 0.04 µM) turned out to be 0.574; in the experiment with Bemcentinib + Tozasertib (first compound 0.1265 µM), 0.429; in the experiment with Bemcentinib + Tozasertib (first compound 0.4 µM), 0.492; with Bemcentinib + Tozasertib (first compound 1.265 µM), 0.464; with Bemcentinib + Tozasertib (first compound 4 µM) it was 0.516; in experiment [2] (first compound 1 µM) it was 1.14. The relative viability in experiment [2] (first compound 3.162 µM) stood at 1.01; in experiment [2] (first compound 10 µM) it was 0.953; in experiment [2] (first compound 31.62 µM), 1.09; in experiment [2] (first compound 100 µM) it was 1.01.

Take SW 900: the relative viability came to 0.458 in the experiment with Bemcentinib + Tozasertib (first compound 0.04 µM); 0.807 with Bemcentinib + Tozasertib (first compound 0.1265 µM); 0.54 with Bemcentinib + Tozasertib (first compound 0.4 µM); 0.611 with Bemcentinib + Tozasertib (first compound 1.265 µM); 0.529 in the experiment with Bemcentinib + Tozasertib (first compound 4 µM); 0.878 in experiment [2] (first compound 1 µM). Further, the relative viability in experiment [2] (first compound 3.162 µM) was found to be 0.724; in experiment [2] (first compound 10 µM) it was 0.836; in experiment [2] (first compound 31.62 µM), 0.837; in experiment [2] (first compound 100 µM), 0.424.
